Laboratory results as given in paper PMC8615111, “Phenolic Thiazoles with Antioxidant and Antiradical Activity. Synthesis, In Vitro Evaluation, Toxicity, Electrochemical Behavior, Quantum Studies and Antimicrobial Screening” (Antioxidants, 2021).

What was measured:
[1] = TEMPO scavenging by differential pulse voltammetry; details: 2 mM TEMPO, one hour incubation, 0.1 M HClO4, DPV
Procedure: (§1) The antioxidant properties were evaluated in terms of their activity against some free radicals, and other compounds reported in the literature, relevant for this purpose, such as: • ferric ions (Fe^3+)—used to test the reduction of the antioxidant character of the compounds; • DPPH˙ free radical– used to test the scavenging effect of the compounds on this radical; • hydrogen peroxide (H2O2)—used to test the scavenging effect of the synthesized molecules on this compound; • 2,2,6,6-tetramethylpiperidinyl-1-oxy (TEMPO)—used to test the scavenging effect of the synthesized molecules on this compound.
TEMPO (2,2,6,6-tetramethylpiperidine-N-oxyl) is a stable organic nitroxide radical that has been reported to scavenge carbon-centered radicals.
Differential pulse voltammetry (DPV) was then applied in order to evaluate the antioxidant effectiveness of the novel compounds through their ability to scavenge the free radical species.

[2] = NO˙ radical scavenging assay (Griess reaction); type: biochemical; details: 100 µL of test solution 1 mg/mL in DMSO, 150 min, pH 7.4
Procedure: Scavenging of the NO˙ radical was performed according to some adapted protocols reported in the literature, based on the nitroprusside decomposition at physiological pH and colorimetric quantification of the resulted products using the Griess reaction.
Over 200 µL of 10 mM sodium nitroprusside, 100 µL of test solutions (1 mg/mL in DMSO), and 400 µL phosphate-buffered saline (PBS, pH = 7.4) were added. The mixture was then incubated at room temperature for 150 min on a rotating shaker (GFL Gesellschaft für Labortechnik, Burgwedel, Germany). After that, 1 mL of sulfanilic acid 0.33% in 20% acetic acid was added and after 5 min, 1 mL of naphthylethylenediamine […] 0.1% was added to all test tubes. After 30 min, the absorbance of the sample, given by the chromophore (azo dye) formed during the diazotization of nitrite ions resulting from decomposition of sodium nitroprusside with sulfanilic acid and coupled with naphthylethylenediamine, was measured at 546 nm. The NO˙ radical scavenging activity of the tested compounds was calculated using Equation (3):(3) NO˙ scavenging (%)=control absorbance−sample absorbance/control absorbance×100

Fe^2+ chelation assay = type: biochemical
Procedure: The protocol used for assessing Fe^2+ chelating capacity of the compounds was adapted from a report of Benzie and Strain and previously reported by our group. The iron(II) chelation ability of compounds was calculated using Equation (7):(7) iron chelation (%)=control absorbance−sample absorbance/control absorbance×100
The chelating potential for the ferrous ions of the new compounds was determined, based on their competition for Fe^2+ with ferrozine.

[3] = DPPH˙ radical scavenging assay; type: biochemical
Procedure: The 2,2-diphenyl-1-picrylhydrazyl (DPPH˙) radical scavenging assay is based on the transfer of one hydrogen from the analyzed compound to the violet radical DPPH˙. This will convert it to a yellow compound, the change in absorbance being proportional to the amount of DPPH˙ neutralized, according to Brand-Williams et al..
The preparation of the DPPH˙ reagent was previously reported by our group. […] Over the previous quantities, DMSO was added until a total volume of 50 µL was obtained in all cuvettes, and 1950 µL of DPPH˙ solution was added to all cuvettes; then, they were shaken for well over 10 min in the dark at room temperature. The absorbances of the solutions were measured at λ = 517 nm. The DPPH˙ radical scavenging activity of evaluated compounds was calculated using Equation (2):(2) DPPH scavenging (%)=control absorbance−sample absorbance/control absorbance×100

[4] = Cyclic voltammetry of the compounds on graphite-based SPE; type: physicochemical; details: CV, 0.1 M HClO4, graphite-based SPE
Procedure: (§2) The evaluated compounds’ stock solutions used were prepared at a concentration of 5 mM. To test their redox properties, dilutions of 0.5 mM and 2 mM were prepared in 0.1 M HClO4 electrolyte (pH = 1.2). Screen-printed electrodes (SPEs; Metrohm DropSens, Oviedo, Spain) (planar electrodes) with graphite and gold working electrodes were used. Cyclic voltammetry (CV) and differential pulse voltammetry (DPV) were the electrochemical methods applied. The experimental conditions for each test are mentioned near the corresponding data (Appendix A).
In Figure 2, the cyclic voltammograms (CVs) for each of the compounds considered in this study, compared individually with the voltammogram obtained in the electrolyte (0.1 M HClO4), are presented. Thus, the oxidation/reduction peaks corresponding to the electrochemical transformations suffered by each compound can be observed in the potential range considered, in an acidic environment (low pH). From Figure 3, where the voltammograms of all eight compounds were presented together, a similarity is observed between 8a and 8b, and among the other compounds, whereas 5a and 5b can be noted as having the highest oxidation signals.

[5] = Ferric ions (Fe^3+) reducing antioxidant power by cyclic voltammetry
Procedure: as §2, §1
This method is based on the evaluation of the influence of the compound measured by the direct reduction of Fe[(CN)6]^3− to […]. This assay is based on the reduction of Fe^3+ to Fe^2+ due to the action of antioxidants. Based on the electrochemical behavior of the studied compounds, the interaction of Fe^3+ was followed by cyclic voltammetry (CV) via the possible changes of redox peaks characteristic for Fe^3+/Fe^2+ transition after the interaction with antioxidants (if any).
From the voltammogram of potassium ferricyanide it can be observed that the one-electron transfer process Fe^3+/Fe^2+ occurs at 0.247 V/ 0.150 V in acidic media (red) (Figure A1; Table A1).
Each compound presents its characteristic peaks (blue line in each figure).

[6] = compound 0.5 mM + Fe^3+/Fe^2+ (0.5 mM potassium ferricyanide), 1st Eox column
[7] = compound 0.5 mM + Fe^3+/Fe^2+ (0.5 mM potassium ferricyanide), 1st Iox column
[8] = compound + Fe^3+/Fe^2+, 1st Ered
[9] = compound + Fe^3+/Fe^2+, 1st Ired
[10] = compound + Fe^3+/Fe^2+, 2nd Eox
[11] = compound + Fe^3+/Fe^2+, 2nd Iox column
[12] = compound + Fe^3+/Fe^2+, 5th Eox
[13] = compound + Fe^3+/Fe^2+, 5th Iox column
[14] = compound alone 0.5 mM in 0.1 M HClO4, 2nd Eox
[15] = compound alone 0.5 mM in 0.1 M HClO4, 2nd Iox column
[16] = compound alone 0.5 mM in 0.1 M HClO4, 5th Eox
[17] = compound alone 0.5 mM in 0.1 M HClO4, 5th Iox column

Row | Structure (SMILES) | oxidation signal for TEMPO after incubation with the compound [1] | % of NO˙ Scavenged [2] [%] | Chelation Capacity (%), ferrous ions (Fe^2+ chelation assay; 150 µg/mL) [%] | Chelation Capacity (%), ferrous ions (Fe^2+ chelation assay; 200 µg/mL) [%] | Ered (V) ([4]; 1st reduction peak) | Ired (μA) ([4]; 1st reduction peak) | Eox (V) ([4]; 2nd oxidation peak) | Iox (μA) ([4]; 2nd oxidation peak) | Ered (V) ([4]; 3rd reduction peak) | Ired (μA) ([4]; 3rd reduction peak) | Eox (V) [5, 6] [V] | Iox (μA) [5, 7] [μA] | Ered (V) [5, 8] [V] | Ired (μA) [5, 9] [μA] | Eox (V) [5, 10] [V] | Iox (μA) [5, 11] [μA] | Eox (V) [5, 12] [V] | Iox (μA) [5, 13] [μA] | Eox (V) [5, 14] [V] | Iox (μA) [5, 15] [μA] | further results
1 | Br.Oc1ccc(/C=N/Nc2nc(-c3ccccc3)cs2)c(O)c1 [Compound 6b, (E)-2-(2,4-dihydroxybenzylidene)-1-(4-phenylthiazol-2-yl)hydrazin-1-ium bromide] | does not decrease | 28.35 | 13.39 | 22.27 | −0.08 | −2.22 | 0.467 | 44.99 | 0.401 | −5.91 | 0.203 | 2.48 | 0.149 | −8.26 | 0.325 | 44.78 | 0.879 | 21.84 | 0.386 | 37.55 | Chelation Capacity (%), ferrous ions (Fe^2+ chelation assay; 50 µg/mL): 0.07%; Chelation Capacity (%), ferrous ions (Fe^2+ chelation assay; 100 µg/mL): 4.84%; % of DPPH˙ Scavenged ([3]; 1 µg/mL): 10.60%; % of DPPH˙ Scavenged ([3]; 1.5 µg/mL): 13.62%; % of DPPH˙ Scavenged ([3]; 2 µg/mL): 17.23%; % of DPPH˙ Scavenged ([3]; 3 µg/mL): 23.89%; % of DPPH˙ Scavenged ([3]; 5 µg/mL): 41.22%; IC50 ([3]; DPPH˙ scavenging): 6.23 µg/mL; Eox (V) ([4]; 1st oxidation peak): 0.296 V; Iox (μA) ([4]; 1st oxidation peak): 5.28 μA; Ered (V) ([4]; 2nd reduction peak): 0.070 V; Ired (μA) ([4]; 2nd reduction peak): −1.49 μA; Eox (V) [5, 16]: 0.894 V; Iox (μA) [5, 17]: 8.86 μA
2 | C/C(=N\Nc1nc(C)cs1)c1ccc(O)cc1O [Compound 5a, Dihydroxy-Phenyl-Thiazol-Hydrazinium chloride] | both the signal shift to higher oxidation potentials and its decrease | 36.26 | 11.17 | 21.69 | −0.075 | −6.62 | 0.384 | 50.85 | 0.256 | −2.17 | 0.152 | 3.69 | 0.091 | −7.33 | 0.308 | 16.21 | 0.903 | 3.82 | 0.308 | 8.83 | Eox (V) ([4]; 3rd oxidation peak): 0.632 V; Iox (μA) ([4]; 3rd oxidation peak): 19.21 μA; Ered (V) ([5]; compound + Fe^3+/Fe^2+, 2nd Ered column): 0.323 V; Ired (μA) ([5]; compound + Fe^3+/Fe^2+, 2nd Ired): −0.99 μA; Iox (μA) ([5]; compound + Fe^3+/Fe^2+, 3rd Iox column): 4.14 μA; Ered (V) ([5]; compound alone 0.5 mM in 0.1 M HClO4, 2nd Ered column): 0.318 V; Ired (μA) ([5]; compound alone 0.5 mM in 0.1 M HClO4, 2nd Ired): −1.23 μA; Eox (V) ([5]; compound alone 0.5 mM in 0.1 M HClO4, 3rd Eox column): 0.573 V; Iox (μA) ([5]; compound alone 0.5 mM in 0.1 M HClO4, 3rd Iox column): 5.23 μA; Eox (V) [5, 16]: 0.997 V; Iox (μA) [5, 17]: 9.78 μA
